Source: ChEMBL document CHEMBL3813674 (Medchemcomm, 2016)
In brackets after ≈: the same amount, converted by molar mass.

Assays:
Assay type in all cases: physicochemical
[1] = Solubility of the compound in ChCl-LA1 solvent at HBA:HBD 1:3 molar ratio and 37 degC measured after 24 hrs by HPLC analysis
[2] = Solubility of the compound in 1,2-propanediol at 37 degC measured after 24 hrs by HPLC analysis
[3] = Solubility of the compound in TPAB-LA1 solvent at 37 degC measured after 24 hrs by HPLC analysis
[4] = Solubility of the compound in ChCl-P solvent at HBA:HBD 1:5 molar ratio and 37 degC measured after 24 hrs by HPLC analysis
[5] = Solubility of the compound in ChCl-P solvent at HBA:HBD 1:2 molar ratio and 37 degC measured after 24 hrs by HPLC analysis
[6] = Solubility of the compound in water at 37 degC measured after 24 hrs by HPLC analysis; conditions: for solubility at 24 h: water
[7] = Solubility of the compound in ChCl-GA2 solvent at 37 degC measured after 24 hrs by HPLC analysis
[8] = Solubility of the compound in TPAB-P solvent at 37 degC measured after 24 hrs by HPLC analysis
[9] = Solubility of the compound in EAC-P solvent at 37 degC measured after 24 hrs by HPLC analysis
[10] = Solubility of the compound in ChCl-LA1 solvent at HBA:HBD 1:5 molar ratio and 37 degC measured after 24 hrs by HPLC analysis
[11] = Solubility of the compound in ChCl-EG solvent at 37 degC measured after 24 hrs by HPLC analysis
[12] = Solubility of the compound in EAC-LA2 solvent at 37 degC measured after 24 hrs by HPLC analysis
[13] = Solubility of the compound in ChCl-P solvent at HBA:HBD 1:3 molar ratio and 37 degC measured after 24 hrs by HPLC analysis
[14] = Solubility of the compound in ChCl-LA2 solvent at 37 degC measured after 24 hrs by HPLC analysis
[15] = Solubility of the compound in BE-LA1 solvent at 37 degC measured after 24 hrs by HPLC analysis
[16] = Solubility of the compound in ChCl-OA solvent at 37 degC measured after 24 hrs by HPLC analysis
[17] = Solubility of the compound in ChCl-MA1 solvent at 37 degC measured after 24 hrs by HPLC analysis
[18] = Solubility of the compound in ChCl-P solvent at HBA:HBD 1:4 molar ratio and 37 degC measured after 24 hrs by HPLC analysis
[19] = Solubility of the compound in ChCl-LA1 solvent at HBA:HBD 1:4 molar ratio and 37 degC measured after 24 hrs by HPLC analysis
[20] = Solubility of the compound in EAC-EG solvent at 37 degC measured after 24 hrs by HPLC analysis
[21] = Solubility of the compound in ChCl-LA1 solvent at HBA:HBD 1:2 molar ratio and 37 degC measured after 24 hrs by HPLC analysis
[22] = Solubility of the compound in ChCl-U solvent at 37 degC measured after 24 hrs by HPLC analysis
[23] = Solubility of the compound in levulinic acid at 37 degC measured after 24 hrs by HPLC analysis
[24] = Solubility of the compound in ChCl-G solvent at 37 degC measured after 24 hrs by HPLC analysis
[25] = Solubility of the compound in ChBt-LA1 solvent at 37 degC measured after 24 hrs by HPLC analysis
[26] = Solubility of the compound in ChCl-LA1 solvent at 37 degC measured after 24 hrs by HPLC analysis
[27] = Solubility of the compound in ChCl-GA1 solvent at 37 degC measured after 24 hrs by HPLC analysis
[28] = Half life of the compound at optimal pH
[29] = Half life of compound in water at 2.5 mg by HPLC method
[30] = Half life of compound in ChCl-P solvent at 2.5 mg by HPLC method
[31] = Ratio of half life of compound in ChCl-P solvent to half life of compound in water; conditions: buffer

Compound | solubility [2] | solubility [3] | solubility [4] | solubility [5] | solubility [7] | solubility [8] | solubility [9] | solubility [11] | solubility [12] | solubility [13] | solubility [14] | solubility [15] | solubility [16] | solubility [17] | solubility [18] | solubility [20] | solubility [22] | solubility [23] | solubility [24] | solubility [25] | other results
CC(=O)Nc1ccc(O)cc1 [ACETAMINOPHEN] | 235.1 mg/mL (≈ 1560 mM) | 316.5 mg/mL (≈ 2090 mM) | 246.2 mg/mL | 324 mg/mL | 224.8 mg/mL (≈ 1490 mM) | 352.7 mg/mL (≈ 2330 mM) | 188.6 mg/mL (≈ 1250 mM) | 287 mg/mL (≈ 1900 mM) | 141.2 mg/mL (≈ 934 mM) | 324 mg/mL | 254 mg/mL (≈ 1680 mM) | 212.1 mg/mL (≈ 1400 mM) | 186.7 mg/mL (≈ 1240 mM) | 266.3 mg/mL (≈ 1760 mM) | 267.9 mg/mL | 173.9 mg/mL (≈ 1150 mM) | 169.7 mg/mL (≈ 1120 mM) | 144.5 mg/mL (≈ 956 mM) | 140.3 mg/mL (≈ 928 mM) | 89.07 mg/mL (≈ 589 mM) | solubility [1]: 217.4 mg/mL; solubility at 24 h [6]: 19.9 mg/mL (≈ 132 mM); solubility [10]: 199.8 mg/mL; solubility [19]: 208.4 mg/mL; solubility [21]: 279 mg/mL; solubility [26]: 279 mg/mL (≈ 1850 mM); solubility [27]: 238.1 mg/mL (≈ 1580 mM)
CC(=O)Oc1ccccc1C(=O)O [ASPIRIN] | 134.3 mg/mL (≈ 745 mM) | 163.7 mg/mL (≈ 909 mM) | 168.7 mg/mL | 202 mg/mL | 67.43 mg/mL (≈ 374 mM) | 220.2 mg/mL (≈ 1220 mM) | 82.18 mg/mL (≈ 456 mM) | 139 mg/mL (≈ 772 mM) | 44.57 mg/mL (≈ 247 mM) | 184.6 mg/mL | 91.3 mg/mL (≈ 507 mM) | 149.8 mg/mL (≈ 831 mM) | 86.32 mg/mL (≈ 479 mM) | 126.3 mg/mL (≈ 701 mM) | 179.2 mg/mL | 56.84 mg/mL (≈ 315 mM) | 147.9 mg/mL (≈ 821 mM) | 95.63 mg/mL (≈ 531 mM) | 42.48 mg/mL (≈ 236 mM) | 37.06 mg/mL (≈ 206 mM) | half-life [28]: < 336 h; solubility [1]: 113.1 mg/mL; solubility ([6]; buffer, 24 h): 3.3 mg/mL (≈ 18.3 mM); solubility [10]: 104.4 mg/mL; half-life [29]: 2.13 h; solubility [19]: 109.9 mg/mL; half-life [30]: 17.5 h; solubility [21]: 135 mg/mL; Ratio [31]: 8.2; solubility [26]: 135 mg/mL (≈ 749 mM); solubility [27]: 76.28 mg/mL (≈ 423 mM)
CC(C)Cc1ccc(C(C)C(=O)O)cc1 (stereo unspecified) [IBUPROFEN] | 380 mg/mL (≈ 1840 mM) | 194.8 mg/mL (≈ 944 mM) | 267.6 mg/mL | 183.3 mg/mL | 9.49 mg/mL (≈ 46 mM) | 383.4 mg/mL (≈ 1860 mM) | 141.6 mg/mL (≈ 686 mM) | 24.29 mg/mL (≈ 118 mM) | 20.67 mg/mL (≈ 100 mM) | 191.7 mg/mL | 17.95 mg/mL (≈ 87 mM) | 280.2 mg/mL (≈ 1360 mM) | 31.51 mg/mL (≈ 153 mM) | 25.87 mg/mL (≈ 125 mM) | 226.1 mg/mL | 21.42 mg/mL (≈ 104 mM) | 4.5 mg/mL (≈ 21.8 mM) | 159.4 mg/mL (≈ 773 mM) | 3.82 mg/mL (≈ 18.5 mM) | 35.05 mg/mL (≈ 170 mM) | solubility at 24 h [6]: 0.07 mg/mL (≈ 0.339 mM); solubility [26]: 78.69 mg/mL (≈ 381 mM); solubility [27]: 25.38 mg/mL (≈ 123 mM)
